Measurements as given in patent publication US20240368209A1, “GEMCITABINE ANTICANCER DERIVATIVE AND ANTICANCER PHARMACEUTICAL USE” (ASCENTAWITS PHARMACEUTICALS, LTD., priority 2021, published 2024).

Assays:
[1] = Plasma stability in monkey plasma; format: in vitro ADME
Experimental: (§1) The final concentration of organic solvents was 0.5%. The test was conducted in duplicate. • C.
(§2) Samples were analyzed with LC-MS/MS. All calculations were conducted using Microsoft Excel.

[2] = Plasma stability in dog plasma; format: in vitro ADME
Experimental: as §1, §2

[3] = Plasma stability in mouse plasma; format: in vitro ADME
Experimental: as §1, §2

[4] = test system: HuPrime pancreatic cancer xenograft model PA1222; assay: In vivo pharmacodynamic experiment in HuPrime pancreatic cancer PA1222 PDX model; settings: for Tumor volume (x ± S): mean ± standard error
[5] = Group 3, 240 mg/kg p.o. QD×21, Day 32
[6] = Group 4, 160 mg/kg i.p. QD×5, 2 days off, 2 weeks off, QD×5, Day 32
[7] = Group 5, 160 mg/kg i.v. Q2D×3 weeks, Day 32

## CC(C)NP(=O)(OCc1ccc([N+](=O)[O-])c(Oc2ccc(-c3ccc(F)cc3)c(F)c2)c1)OCC1OC(C2N=CC(N)=NC2=O)C(F)(F)C1O (centres unmarked) [Compound H11]
[1]
  t1/2 (min): ∞
[1]; 0 min, 5 μM, 37° C.
  Remaining percentage (%): 100.00%
[1]; 37° C., at least 2 hours
  plasma stability (in words): stable and has no significant metabolism
[1]; 15 min
  Remaining percentage (%): 100.61%
[1]; 30 min
  Remaining percentage (%): 92.99%
[1]; 60 min
  Remaining percentage (%): 103.66%
[1]; 120 min
  Remaining percentage (%): 98.48%
[2]
  t1/2 (min): ∞
[2]; 0 min, 5 μM, 37° C.
  Remaining percentage (%): 100.00%
[2]; 37° C., at least 2 hours
  plasma stability (in words): stable and has no significant metabolism
[2]; 15 min
  Remaining percentage (%): 104.14%
[2]; 30 min
  Remaining percentage (%): 103.37%
[2]; 60 min
  Remaining percentage (%): 102.42%
[2]; 120 min
  Remaining percentage (%): 103.04%
[3]
  t1/2 (min): ∞
[3]; 0 min, 5 μM, 37° C.
  Remaining percentage (%): 100.00%
[3]; 37° C., at least 2 hours
  plasma stability (in words): stable and has no significant metabolism
[3]; 15 min
  Remaining percentage (%): 102.19%
[3]; 30 min
  Remaining percentage (%): 96.83%
[3]; 60 min
  Remaining percentage (%): 104.70%
[3]; 120 min
  Remaining percentage (%): 97.53%
[4]; Group 3, 240 mg/kg p.o. QD×21
  weight loss and tolerability during treatment: did not show any significant weight loss, and tolerated well
[4]; [5]
  Relative tumor volume (x ± S): 0.47 ± 0.27
  T/C (%): 7.65%
  TGI (%): 92.35%
  complete tumor inhibition rate: 20%
  Tumor volume (x ± S): 44.61 ± 22.14
[4]; Group 3, 240 mg/kg p.o., Day 0
  Average weight (g) of mice: 21.8 g
[4]; Group 3, 240 mg/kg p.o., Day 1
  Average weight (g) of mice: 21.5 g
[4]; Group 3, 240 mg/kg p.o., Day 2
  Average weight (g) of mice: 21.5 g
[4]; Group 3, 240 mg/kg p.o., Day 3
  Average weight (g) of mice: 21.6 g
[4]; Group 3, 240 mg/kg p.o., Day 4
  Average weight (g) of mice: 21.9 g
[4]; Group 3, 240 mg/kg p.o., Day 5
  Average weight (g) of mice: 22.3 g
[4]; Group 3, 240 mg/kg p.o., Day 6
  Average weight (g) of mice: 21.7 g
[4]; Group 3, 240 mg/kg p.o., Day 7
  Average weight (g) of mice: 21.6 g
[4]; Group 3, 240 mg/kg p.o., Day 8
  Average weight (g) of mice: 21.7 g
[4]; Group 3, 240 mg/kg p.o., Day 9
  Average weight (g) of mice: 22.5 g
[4]; Group 3, 240 mg/kg p.o., Day 10
  Average weight (g) of mice: 21.6 g
[4]; Group 3, 240 mg/kg p.o., Day 11
  Average weight (g) of mice: 21.9 g
[4]; Group 3, 240 mg/kg p.o., Day 12
  Average weight (g) of mice: 22.0 g
[4]; Group 3, 240 mg/kg p.o., Day 13
  Average weight (g) of mice: 21.9 g
[4]; Group 3, 240 mg/kg p.o., Day 14
  Average weight (g) of mice: 21.6 g
[4]; Group 3, 240 mg/kg p.o., Day 15
  Average weight (g) of mice: 21.6 g
[4]; Group 3, 240 mg/kg p.o., Day 16
  Average weight (g) of mice: 22.1 g
[4]; Group 3, 240 mg/kg p.o., Day 17
  Average weight (g) of mice: 21.8 g
[4]; Group 3, 240 mg/kg p.o., Day 18
  Average weight (g) of mice: 21.9 g
[4]; Group 3, 240 mg/kg p.o., Day 19
  Average weight (g) of mice: 21.8 g
[4]; Group 3, 240 mg/kg p.o., Day 20
  Average weight (g) of mice: 21.9 g
[4]; Group 3, 240 mg/kg p.o., Day 21
  Average weight (g) of mice: 21.8 g
[4]; Group 3, 240 mg/kg p.o., Day 25
  Average weight (g) of mice: 22.6 g
[4]; Group 3, 240 mg/kg p.o., Day 28
  Average weight (g) of mice: 22.4 g
[4]; Group 3, 240 mg/kg p.o., Day 32
  Average weight (g) of mice: 22.9 g
[4]; Group 3, 240 mg/kg p.o., day 0
  Tumor volume (mm^3) (x ± S): 102.83 mm^3
[4]; Group 3, 240 mg/kg p.o., day 4
  Tumor volume (mm^3) (x ± S): 123.16 mm^3
[4]; Group 3, 240 mg/kg p.o., day 7
  Tumor volume (mm^3) (x ± S): 90.07 mm^3
[4]; Group 3, 240 mg/kg p.o., day 11
  Tumor volume (mm^3) (x ± S): 54.28 mm^3
[4]; Group 3, 240 mg/kg p.o., day 14
  Tumor volume (mm^3) (x ± S): 41.73 mm^3
[4]; Group 3, 240 mg/kg p.o., day 18
  Tumor volume (mm^3) (x ± S): 34.60 mm^3
[4]; Group 3, 240 mg/kg p.o., day 21
  Tumor volume (mm^3) (x ± S): 29.52 mm^3
[4]; Group 3, 240 mg/kg p.o., day 25
  Tumor volume (mm^3) (x ± S): 30.71 mm^3
[4]; Group 3, 240 mg/kg p.o., day 28
  Tumor volume (mm^3) (x ± S): 30.59 mm^3
[4]; Group 3, 240 mg/kg p.o., day 32
  Tumor volume (mm^3) (x ± S): 44.61 mm^3
[4]; Group 4, 160 mg/kg i.p. QD×5, 2 days off, 2 weeks off, QD×5
  weight loss and tolerability during treatment: did not show any significant weight loss, and tolerated well
[4]; [6]
  Relative tumor volume (x ± S): 2.01 ± 0.41
  T/C (%): 32.38%
  TGI (%): 67.62%
  Tumor volume (x ± S): 202.58 ± 45.40
[4]; Group 4, 160 mg/kg i.p., Day 0
  Average weight (g) of mice: 21.4 g
[4]; Group 4, 160 mg/kg i.p., Day 1
  Average weight (g) of mice: 22.0 g
[4]; Group 4, 160 mg/kg i.p., Day 2
  Average weight (g) of mice: 21.5 g
[4]; Group 4, 160 mg/kg i.p., Day 3
  Average weight (g) of mice: 22.0 g
[4]; Group 4, 160 mg/kg i.p., Day 4
  Average weight (g) of mice: 21.7 g
[4]; Group 4, 160 mg/kg i.p., Day 7
  Average weight (g) of mice: 22.3 g
[4]; Group 4, 160 mg/kg i.p., Day 11
  Average weight (g) of mice: 22.5 g
[4]; Group 4, 160 mg/kg i.p., Day 14
  Average weight (g) of mice: 22.9 g
[4]; Group 4, 160 mg/kg i.p., Day 18
  Average weight (g) of mice: 22.7 g
[4]; Group 4, 160 mg/kg i.p., Day 21
  Average weight (g) of mice: 22.9 g
[4]; Group 4, 160 mg/kg i.p., Day 22
  Average weight (g) of mice: 22.6 g
[4]; Group 4, 160 mg/kg i.p., Day 23
  Average weight (g) of mice: 22.5 g
[4]; Group 4, 160 mg/kg i.p., Day 24
  Average weight (g) of mice: 22.6 g
[4]; Group 4, 160 mg/kg i.p., Day 25
  Average weight (g) of mice: 22.5 g
[4]; Group 4, 160 mg/kg i.p., Day 28
  Average weight (g) of mice: 22.6 g
[4]; Group 4, 160 mg/kg i.p., Day 32
  Average weight (g) of mice: 23.3 g
[4]; Group 4, 160 mg/kg i.p., day 0
  Tumor volume (mm^3) (x ± S): 101.91 mm^3
[4]; Group 4, 160 mg/kg i.p., day 4
  Tumor volume (mm^3) (x ± S): 105.94 mm^3
[4]; Group 4, 160 mg/kg i.p., day 7
  Tumor volume (mm^3) (x ± S): 96.63 mm^3
[4]; Group 4, 160 mg/kg i.p., day 11
  Tumor volume (mm^3) (x ± S): 116.07 mm^3
[4]; Group 4, 160 mg/kg i.p., day 14
  Tumor volume (mm^3) (x ± S): 139.61 mm^3
[4]; Group 4, 160 mg/kg i.p., day 18
  Tumor volume (mm^3) (x ± S): 153.86 mm^3
[4]; Group 4, 160 mg/kg i.p., day 21
  Tumor volume (mm^3) (x ± S): 188.69 mm^3
[4]; Group 4, 160 mg/kg i.p., day 25
  Tumor volume (mm^3) (x ± S): 198.68 mm^3
[4]; Group 4, 160 mg/kg i.p., day 28
  Tumor volume (mm^3) (x ± S): 195.90 mm^3
[4]; Group 4, 160 mg/kg i.p., day 32
  Tumor volume (mm^3) (x ± S): 202.58 mm^3
[4]; Group 5, 160 mg/kg i.v. Q2D×3 weeks
  weight loss and tolerability during treatment: did not show any significant weight loss, and tolerated well
[4]; [7]
  Relative tumor volume (x ± S): 0.00 ± 0.00
  T/C (%): 0.00%
  TGI (%): 100%
  complete tumor inhibition rate: 100%
  Tumor volume (x ± S): 0.00 ± 0.00
[4]; Group 5, 160 mg/kg i.v., Day 0
  Average weight (g) of mice: 21.6 g
[4]; Group 5, 160 mg/kg i.v., Day 2
  Average weight (g) of mice: 21.8 g
[4]; Group 5, 160 mg/kg i.v., Day 4
  Average weight (g) of mice: 21.4 g
[4]; Group 5, 160 mg/kg i.v., Day 7
  Average weight (g) of mice: 20.9 g
[4]; Group 5, 160 mg/kg i.v., Day 8
  Average weight (g) of mice: 21.6 g
[4]; Group 5, 160 mg/kg i.v., Day 10
  Average weight (g) of mice: 21.3 g
[4]; Group 5, 160 mg/kg i.v., Day 11
  Average weight (g) of mice: 22.1 g
[4]; Group 5, 160 mg/kg i.v., Day 12
  Average weight (g) of mice: 22.2 g
[4]; Group 5, 160 mg/kg i.v., Day 14
  Average weight (g) of mice: 22.0 g
[4]; Group 5, 160 mg/kg i.v., Day 16
  Average weight (g) of mice: 22.3 g
[4]; Group 5, 160 mg/kg i.v., Day 18
  Average weight (g) of mice: 22.1 g
[4]; Group 5, 160 mg/kg i.v., Day 20
  Average weight (g) of mice: 22.1 g
[4]; Group 5, 160 mg/kg i.v., Day 21
  Average weight (g) of mice: 22.3 g
[4]; Group 5, 160 mg/kg i.v., Day 25
  Average weight (g) of mice: 22.6 g
[4]; Group 5, 160 mg/kg i.v., Day 28
  Average weight (g) of mice: 22.5 g
[4]; Group 5, 160 mg/kg i.v., Day 32
  Average weight (g) of mice: 23.2 g
[4]; Group 5, 160 mg/kg i.v., day 0
  Tumor volume (mm^3) (x ± S): 102.11 mm^3
[4]; Group 5, 160 mg/kg i.v., day 4
  Tumor volume (mm^3) (x ± S): 98.46 mm^3
[4]; Group 5, 160 mg/kg i.v., day 7
  Tumor volume (mm^3) (x ± S): 79.97 mm^3
[4]; Group 5, 160 mg/kg i.v., day 11
  Tumor volume (mm^3) (x ± S): 40.67 mm^3
[4]; Group 5, 160 mg/kg i.v., day 14
  Tumor volume (mm^3) (x ± S): 22.37 mm^3
[4]; Group 5, 160 mg/kg i.v., day 18
  Tumor volume (mm^3) (x ± S): 11.52 mm^3
[4]; Group 5, 160 mg/kg i.v., day 21
  Tumor volume (mm^3) (x ± S): 11.56 mm^3
[4]; Group 5, 160 mg/kg i.v., day 25
  Tumor volume (mm^3) (x ± S): 6.73 mm^3
[4]; Group 5, 160 mg/kg i.v., day 28
  Tumor volume (mm^3) (x ± S): 0.00 mm^3
[4]; Group 5, 160 mg/kg i.v., day 32
  Tumor volume (mm^3) (x ± S): 0.00 mm^3
